This note sets out measurements from patent publication US8207195B2, “Method for treating neurological and neuropathic diseases using rho kinase inhibitor compounds” (priority 2008, dated 2012).

A short description of series [1]: Rat oral pharmacokinetics (plasma). Type of series: in vivo. The following applies: 20-30 μmol/kg, mean n = 3.
Description: Plasma (EDTA K2 anticoagulant) was collected from male, cannulated, CD Sprague Dawley rats to determine the pharmacokinetics of formulations containing compound inhibitors of Rho kinase. Each animal was dosed orally with a 4 ml/kg solution or suspension of each test compound in 10 mM acetate buffered saline, pH 4.5 at a final concentration range of 20-30 μmol/kg. Blood was collected at 0.25, 0.5, 1, 2, 4, 6, 8, and 24 hours. Plasma samples were assayed for the concentration of the test compound using an on-line, solid phase extraction LC/MS/MS analysis system.
Samples were analyzed on a QSTAR Elite, hybrid quadrupole time-of-flight mass spectrometer (Applied Biosystems, Framingham, Mass.) coupled with a Symbiosis Pharma integrated, on-line SPE-HPLC system (Spark Holland Inc., Plainsboro, N.J.). Analyst QS 2.0 software was used for instrument control, data acquisition and processing. […] Mobile Phase A consisted of 0.1% ammonium hydroxide in water and Mobile Phase B consisted of 0.1% formic acid in acetonitrile. Pharmacokinetic analyses were performed using WinNonlin software version 5.2 (Pharsight Corporation, Mountain View, Calif.).
As determined from the plasma concentration versus time curves, the time to peak and peak exposure are represented by the values Tmax and Cmax, respectively. The AUC values (nM*hr) shown were calculated as the areas under the plasma concentration versus time curves from time zero through the time of the last observable value and represent the total exposure of the compound over the course of the study. Half-life values or the amount of time required for the plasma levels of the compound to decline to half the initial value are represented as t½.
The subject of series [2] is ova-sensitized, ova-challenged mice. In words: Mouse ovalbumin sensitization model, anti-inflammatory dosing: BALF eosinophils and cytokines. The class given is in vivo. The note with it: for Airway eosinophil infiltration (eosinophils per ml of BALF): dosed orally to day 31, anti-inflammatory dosing paradigm.
Description: Male BALB/c mice were ordered from Charles River Laboratories (Raleigh, N.C.). The animals were approximately 19 to 21 grams at time of receipt. Upon arrival, the animals were randomized into groups of five males per cage and assigned to a dosing group. Animals were quarantined for 7 days under test conditions. They were observed daily for general health status and ability to adapt to the water bottles. Animals were sensitized on day 0 and 14 of study by an intraperitoneal injection with 20 μg of ovalbumin (ova) and 2.0 mg aluminum hydroxide (alum) which initiates the development of a specific T-helper (Th) cells type 2 resulting in asthmatic animals (denoted as Ova in the figures). One group of animals received an injection of saline to use as control animals (denoted as normal in the figures). […] Aerosol challenge consists of using an Aerogen Aeroneb nebulizer and controller with a particle size of 4-6 μm mass median aerodynamic diameter (MMAD) with a distribution of 400 μl per minute. This aerosol challenge is necessary to target the Th2-driven allergic inflammation in the lower airways.
The anti-inflammatory dosing paradigm (FIG. 1) was utilized to evaluate the anti-inflammatory effects of experimental compounds. […] On day 32 of the experiment, after measurement of airway hyperreactivity, BALF was collected and all animals were anesthetized, bled and euthanized.
Bronchoalveolar lavage fluid (BALF) was collected by infusing 3.0 ml of saline with 10% fetal calf serum into the lungs via the trachea and then withdrawing the fluid. The total amount of cells/ml of BALF fluid was determined via manual cell count on hemocytometer. The BALF was centrifuged, supernatant removed and analyzed for cytokine concentrations as described below, and cell pellet reconstituted in 500 μL of fluid. Cytospin slides were prepared from the cell pellet using 100 μL of fluid and spinning samples for 5 minutes at 5000 rpms in a cytospin centrifuge. Following Hema3 stain, relative percentages of individual leukocytes were determined on a 200 cell count for each sample. The final concentration of individual leukocyte cell types per ml of BALF was determined by multiplication of the relative percentage of individual leukocytes with the total amount of cells/ml of BALF fluid.
The concentrations of cytokines in the BALF samples were determined using commercially available Bio-plex kits (Bio-Rad) for the detection of mouse IL-5, IL-13, and Eotaxin. The analysis of cytokine levels was measured using the Bio-Plex 200 (Bio-Rad) system according to the manufacturer's instructions.
The test system of a further series is LPS-challenged mice. Description: LPS-induced neutrophilia and cytokine production assay. The note with it: for IL-1β levels in BALF: intratracheal administration, LPS-challenged mice. Type of series: in vivo, mouse.
Series [3] has as its system ova-sensitized, ova-challenged mice. Description: Prevention of airway hyperreactivity (Penh, methacholine) in ovalbumin-sensitized mice. The class given is in vivo, mouse. The following applies: for airway hyperreactivity to metacholine: oral 15 μMol/kg once a day during days 27 to 31, tested Day 32. An excerpt:
Airway hyperreactivity is a downstream physiologic effect of inflammation in the mouse ovalbumin sensitization model. The objective of the experiment was to answer whether the decrease in inflammation due to ROCK inhibitor anti-inflammatory dosing results in the prevention of downstream physiological consequences as measured by Penh. […] The anti-inflammatory dosing paradigm consists of dosing the animals once a day starting on day 27 and finishing on either day 30 or 31 (1 hr prior to the aerosolized ovalbumin challenges on days 28 to 30) but not on day 32 when hyperreactivity evaluation occurs. […] Exposure to the methacholine doses consisted of a 3 minute period during which a nebulizer was aerosolizing the methacholine and an additional 3 minute period following the cessation of nebulization. […] Enhanced pause (Penh), a unitless index of airway hyperreactivity, is derived from the expiratory side of the respiratory waveform measured via the plethysmograph and is used as an indirect measure of airway resistance and hyperreactivity. […] Following the methacholine dose response, BALF was collected and all animals were anesthetized, bled and euthanized. […] The Penh value at each of the dose levels of methacholine represents the 6-minute average response. Change from baseline (CFB) in Penh was calculated at each methacholine dose and the area under the curve (AUC) for these CFB values was calculated using the trapezoidal rule. This same approach was applied for each mouse across multiple experiments. […] Data from equal experimental conditions across experiments performed on different days were pooled for statistical analysis and data reporting. […] A random intercept for each experiment was assumed to account for possible similarities of the results obtained from a given experiment (i.e., as a “blocking effect”). […] For FIG. 7, linear AUC values from compound treated mice were reported as a percent of linear AUC values from vehicle-treated ovalbumin-sensitized/ovalbumin-challenged (asthmatic) mice. […]

A further series deals with T1, ERK2 (Homo sapiens, UniProt P28482).
T1 construct: purchased Upstate, Millipore Bioscience Division (KinaseProfiler service)
In words: Kinase panel screen (KinaseProfiler), ERK2. The class given is biochemical. The note with it: 10 μM ATP. As to the method: Compounds of Formulae I and II were examined for activity against a selected panel of kinases using the KinaseProfiler™ enzyme profiling services (Upstate, Millipore Bioscience Division). Percent kinase activity at 10 μM and 1 μM test compound and 10 μM ATP was determined against 40 wild-type recombinant human kinases according to Upstate's standard protocol: ASK1, BTK, CSK, c-RAF, GCK, GSK3β, IKKα, IKKβ, IRAK1, IRAK4, JNK1α1, JNK2α2, JNK3, ERK1, ERK2, MAPKAP-K2, MAPKAP-K3, MEK1, MKK4, MKK6, MKK7β, Mnk2, MSK1, PAK3, PDK1, PRAK, ROCK1, Rsk2, SAPK2a, SAPK2b, SAPK3, SAPK4, SRPK1, SRPK2, Syk, TAK1, TBK1, PI3-Kβ, PI3-Kγ, PI3-Kδ.

The next series deals with human eosinophils. Description: Human eosinophil chemotaxis (eotaxin). The note with it: 1 nM eotaxin challenge. Type of series: cell-based. An excerpt:
These assays are in vitro assays of eosinophil chemotaxis that can be used to evaluate the ability of Rho Kinase inhibitor compounds of Formula I or II to inhibit the migration of eosinophils, an immunomodulatory cell involved in inflammation. Compounds with activity in this assay can be utilized to treat disease associated with an inflammatory response. Human Eosinophil Isolation: Peripheral blood from healthy human volunteers was collected and the PMNs separated via Ficoll-paque density centrifugation followed by hypotonic lysis of the red blood cells. Subsequently, the human eosinophils were isolated from the cell suspension via StemCell Technologies Human Eosinophil Enrichment kit (Cat. No 19256) according to the manufacturer's recommendations. Briefly, unwanted cells were specifically labeled with dextran-coated magnetic nanoparticles using bispecific Tetrameric Antibody Complexes (TAC) directed against cell surface antigens on human blood cells: […] The unwanted cells are then separated from the unlabelled eosinophils using the EasySep® magnetic isolation procedure. In Vitro Chemotaxis: […]

In the next series the test system is murine eosinophils. In words: Murine eosinophil chemotaxis (eotaxin). The class given is cell-based, mouse. The note with it: 10 nM eotaxin challenge. The protocol:
These assays are in vitro assays of eosinophil chemotaxis that can be used to evaluate the ability of Rho Kinase inhibitor compounds of Formula I or II to inhibit the migration of eosinophils, an immunomodulatory cell involved in inflammation. Compounds with activity in this assay can be utilized to treat disease associated with an inflammatory response. Mouse Eosinophil Isolation: Bronchoalveolar lavage was collected from ovalbumin sensitized and challenged mice in a volume of 2.5 mL lavage buffer. The lavage buffer was 0.9% saline with 10% fetal bovine serum. The pooled lavages were maintained on ice until use. […] In Vitro Chemotaxis: […]

Series [4] relates to LPS-stimulated human monocytes. Description: Human monocyte cytokine secretion assay (LPS). Type of series: cell-based. The note with it: range over the three cytokines and both compounds, read-out: potencies for reducing secretion of IL-1β, TNF-α and IL-9.
Description: Peripheral blood from healthy human volunteers was collected and the monocytes isolated via Ficoll-paque density centrifugation. […] The cells were allowed to pre-incubate with test compound at the indicated concentration for 30 minutes (37° C., 5% CO2, humidified air); after which the supernatant was removed and media containing compound and 1 ng/mL LPS was added. Cells were allowed to incubate with compounds and LPS for 4 hours at 37° C. after which the supernatant was removed and stored at −80° C. Cytokine concentrations in the supernatant were determined using commercially available Bio-Rad Bio-plex™ kits according the manufacturer's instructions.
Setting [5] is: 15 μmol/kg/oral on days 27 to 31.

“Also recorded” adds a separate entry of the source.

T1 sequence (P28482 whole entry): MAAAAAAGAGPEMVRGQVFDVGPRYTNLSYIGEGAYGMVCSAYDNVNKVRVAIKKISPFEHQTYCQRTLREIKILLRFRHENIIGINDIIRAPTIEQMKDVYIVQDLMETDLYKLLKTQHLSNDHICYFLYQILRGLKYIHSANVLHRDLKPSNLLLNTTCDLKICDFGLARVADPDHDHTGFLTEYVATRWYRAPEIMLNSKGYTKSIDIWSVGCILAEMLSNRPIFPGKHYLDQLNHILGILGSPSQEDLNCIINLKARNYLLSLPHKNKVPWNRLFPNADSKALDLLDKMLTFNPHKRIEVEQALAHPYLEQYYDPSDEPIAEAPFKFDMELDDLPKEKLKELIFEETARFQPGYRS
Description for LPS-challenged mice: This assay is an in vivo assay of neutrophil accumulation and cytokine production that can be used to evaluate the activity of Rho Kinase inhibitor compounds of Formula I or II as anti-inflammatory agents in a whole animal model.
Male BALB/c mice, approximately 19 to 21 grams, were ordered from Charles River Laboratories (Raleigh, N.C.). All animals were challenged with aerosolized LPS (10 μg/ml) for 25 minutes on study day 0. LPS aerosol was generated using an Aerogen Aeroneb nebulizer and controller providing a flow of 400 μl/min and a particle size of 2-4 μm MMAD. Rolipram was administered i.p at 20 mg/kg. […] Four hours following LPS challenge, BALF was collected using a total of 3 ml of 0.9% sodium chloride containing 10% fetal calf serum. Total cell counts were determined using the Coulter Counter. For differential evaluations, BALF was centrifuged and cytospin slides prepared and stained with Hema3 stain. Manual leukocyte counts were then completed on 200 cells. The final concentration of individual leukocyte cell types per ml of BALF was determined by multiplication of the relative percentage of individual leukocytes with the total amount of cells/ml of BALF fluid. The concentration of IL-1β in the BALF samples was determined using commercially available Bio-plex kits (Bio-Rad). The analysis of cytokine levels was measured using the Bio-Plex 200 (Bio-Rad) system according to the manufacturer's instructions.

With `CS(=O)(=O)Nc1cccc(CN2CCC[C@H](Nc3ccc4[nH]ncc4c3)C2)c1` [Compound 1.091, (S)-N-(3-((3-(1H-indazol-5-ylamino)piperidin-1-yl)methyl)phenyl)methanesulfonamide], in series [1], the “AUC (0-last)” value is listed as “BLQ”, the Cmax result was “BLQ”, the Tmax entry was “BLQ” and the t½ result is on record as “BLQ”. In series [2] (dosed i.t. to day 30, anti-inflammatory dosing paradigm), the “eosinophils in BALF” value was “reduction of eosinophils”. Also, in the series with LPS-challenged mice, the “IL-1β levels in BALF” value is listed as “reduction in IL-1β; also recorded: reduction of IL-1β levels”. The “LPS-induced pulmonary neutrophilia influx” value with LPS-challenged mice (intratracheal dosing one hour prior to LPS challenge) is recorded as “significant reduction; also recorded: dose-dependent inhibition”. In series [3] (intratracheal once a day during days 27 to 30), the airway hyperreactivity entry is on record as “prevention of airway hyperreactivity”.
On to `c1cc2cc(CN3CCC[C@@H](Nc4ccc5[nH]ncc5c4)C3)ccc2o1` [Compound 1.131, (R)-N-(1-(benzofuran-5-ylmethyl)piperidin-3-yl)-1H-indazol-5-amine], for which the “Airway eosinophil infiltration (eosinophils per ml of BALF)” value in series [2] is “reduced”. For the same compound, in series [3], the “airway hyperreactivity to metacholine” value is listed as “prevention of airway hyperreactivity”.
On to `NC(=O)Cn1ccc2cc(CN3CCC[C@@H](Nc4ccc5[nH]ncc5c4)C3)ccc21` [Compound 1.162, (R)-2-(5-((3-(1H-indazol-5-ylamino)piperidin-1-yl)methyl)-1H-indol-1-yl)acetamide], for which the activity at 1 µM on ERK2 (1 μM test compound, read-out: Percent inhibition ERK2) worked out at 89%. For the same compound, the activity at 10 µM at ERK2 (10 μM test compound, read-out: Percent inhibition ERK2) was determined as 60%.
In the case of `CS(=O)(=O)Nc1cccc(CN2CC[C@@H](Nc3cccc4cnccc34)C2)c1` [Compound 2.038, (R)-N-(3-((3-(isoquinolin-5-ylamino)pyrrolidin-1-yl)methyl)phenyl)methanesulfonamide], the “human eosinophil chemotactic response” value with human eosinophils is reported as “inhibited”. Further, in series [2] (setting [5]), the “concentration of Eotaxin in BALF” value is recorded as “reduced levels”, the “concentration of IL-5 in BALF” value is listed as “reduced levels” and the “concentration of IL-13 in BALF” value is “reduced levels”. Further, the “Airway eosinophil infiltration (eosinophils per ml of BALF)” value in series [2] is given as “reduced”. Besides, the “airway hyperreactivity to metacholine” value in series [3] is “prevention of airway hyperreactivity”. Also, the “murine eosinophil chemotactic response” value in the series on murine eosinophils is “inhibited”.
With `NC(=O)Cn1ccc2cc(CN3CC[C@@H](Nc4cccc5cnccc45)C3)ccc21` [Compound 2.059, (R)-2-(5-((3-(isoquinolin-5-ylamino)pyrrolidin-1-yl)methyl)-1H-indol-1-yl)acetamide], the “Percent inhibition ERK2” value on ERK2 (1 μM test compound) amounted to 56%. The “IL-1β levels in BALF” value with LPS-challenged mice is given as “reduction in IL-1β; also recorded: reduction of IL-1β levels”. In series [4], the IC50 lay in the range of 0.17 to 1 µM.
As to `OCCn1ccc2cc(CN3CC[C@@H](Nc4cccc5cnccc45)C3)ccc21` [Compound 2.066, (R)-2-(5-((3-(isoquinolin-5-ylamino)pyrrolidin-1-yl)methyl)-1H-indol-1-yl)ethanol], in series [4], the IC50 lay in the range of 0.17 to 1 µM.
